Like-named read-outs stand apart in the source and are kept apart here.
Key:
apomorphine emesis = assay: Antiemetic screen: Apomorphine Emesis (Dog); assay type: in vivo, Beagle dogs; conditions: s.c., apomorphine HCl 0.1 mg/kg sc one hour after test compound, 2 dogs; for ED100: Canis lupus familiaris, sc, 1 h, read-out: 100% Effect Dosage level (dosage at which both animals were protected from apomorphine emesis)
Procedure: Each of the test compounds shown in Table VIII was administered subcutaneously to two Beagle dogs at dosage levels of 0.05, 0.1, 1.0 and 10.0 mg/kg. One hour following administration of the test compound, each animal received 0.1 mg/kg, sc, of apomorphine HCl. Apomorphine consistently evokes an immediate emetic response through direct dopaminergic interaction at the medullary chemoreceptor trigger zone (CTZ). Antiemetic compounds which act at the CTZ and/or the midbrain vomiting center will block this effect. If both animals receiving a particular treatment are protected, (i.e., no emetic response within one hour after apomorphine), the test compound is considered active.

[1] = test system: apomorphine induced climbing behavior; assay: Antipsychotic screen: apomorphine induced climbing behavior; assay type: in vivo; conditions: mouse, apomorphine 1 mg/kg, observed 20 minutes after; for ED50: 20 min, read-out: Approx. 50% ED, apomorphine climbing
Procedure: The effect of each of the benzofurancarboxamides shown in Table VIII below on apomorphine induced climbing behavior was tested under the conditions described by Costetin et al. "Rapid and Dissociated Changes in Sensitivities of Different Dopamine Receptors in Mouse Brain," Nature, 257, 405 (1975). Each mouse was administered from 0.1 to 50 mg/kg of test compound and antagonism was observed 20 minutes after injection of 1 mg/kg apomorphine induced climbing behavior.

dopamine receptors = conditions: cited from earlier work
[2] = oral (marked in cell; head prints s.c.)
[3] = ip, i.p. (marked in cell; head prints s.c.)

CCN1CCCC1CNC(=O)c1cc(F)cc2ccoc12 (centres unmarked) [drawing 105 R = F R' = H]
ED100 (apomorphine emesis): 1 mg/kg

CCN1CCCC1CNC(=O)c1cc(Cl)cc2ccoc12.O=C(O)/C=C/C(=O)O (centres unmarked) [drawing 105 R = Cl R' = H, 5-chloro-N-(1-ethyl-2-pyrrolidinylmethyl)benzo[b]furan-7-carboxamide fumarate]
ED50 [1, 2]: ~5 mg/kg | ED100 (apomorphine emesis): 0.1 mg/kg

CCN1CCCC1CNC(=O)c1cc(Br)cc2ccoc12 (centres unmarked)
ED50 [1, 3]: ~0.5 mg/kg | ED100 (apomorphine emesis): 0.1 mg/kg

CCN1CCCC1CNC(=O)c1cc(Br)cc2c1OC(C)C2 (centres unmarked) [drawing 99 R = Br R' = H]
ED50 [1, 3]: ~2 mg/kg | ED100 (apomorphine emesis): 0.005 mg/kg

CCN1CCCC1CNC(=O)c1cc(OC)cc2c1OC(C)C2 (centres unmarked) [drawing 99 R = OCH3 R' = H]
ED50 [1, 2]: ~1 mg/kg | ED50 [1, 3]: ~25 mg/kg | ED100 (apomorphine emesis): 0.1 mg/kg

CCN1CCCC1CNC(=O)c1cc(Cl)cc2c1OCC2 (centres unmarked) [drawing 98 R = Cl]
ED50 [1, 2]: ~15 mg/kg | ED50 [1, 3]: ~5 mg/kg | ED100 (apomorphine emesis): 1 mg/kg

CCN1CCCC1CNC(=O)c1cccc2c1OCC2 (centres unmarked) [drawing 98 R = H]
ED50 [1, 3]: ~20 mg/kg | ED100 (apomorphine emesis): 1 mg/kg

CCN1CCCC1CNC(=O)c1cccc2ccoc12 (centres unmarked) [drawing 97 R = H]
ED50 [1, 3]: ~12 mg/kg | ED100 (apomorphine emesis): 10 mg/kg

CCN1CCCC1CNC(=O)c1cc(NC(C)=O)cc2c1OCC2.O=C(O)/C=C/C(=O)O (centres unmarked) [drawing 98 R = NHCOCH3, 5-acetamido-N-(1-ethyl-2-pyrrolidinylmethyl)-2,3-dihydrobenzo[b]furan-7-carboxamide fumarate]
ED50 [1, 3]: ~50 mg/kg

CCN1CCCC1CNC(=O)c1cc(N)cc2c1OCC2.O=C(O)/C=C/C(=O)O (centres unmarked) [drawing 98 R = NH2, 5-amino-N-(1-ethyl-2-pyrrolidinylmethyl)-2,3-dihydrobenzo[b]furan-7-carboxamide fumarate]
ED50 [1, 2]: ~20 mg/kg | ED50 [1, 3]: ~25 mg/kg

CCN1CCCC1CNC(=O)c1cc(C)cc2c1OCC2.Cl (centres unmarked) [drawing 98 R = CH3, N-(1-ethyl-2-pyrrolidinylmethyl)-5-methyl-2,3-dihydrobenzo[b]furan-7-carboxamide hydrochloride]
ED50 [1, 3]: ~3 mg/kg | ED100 (apomorphine emesis): 0.1 mg/kg

CCN1CCCC1CNC(=O)c1cc([N+](=O)[O-])cc2c1OCC2 (centres unmarked) [drawing 98 R = NO2, N-(1-ethyl-2-pyrrolidinylmethyl)-5-nitro-2,3-dihydrobenzo[b]furan-7-carboxamide]
ED50 [1, 2]: ~15 mg/kg | ED50 [1, 3]: ~20 mg/kg | ED100 (apomorphine emesis): 1 mg/kg

CCN1CCCC1CNC(=O)c1cc(NS(C)(=O)=O)cc2c1OCC2 (centres unmarked) [drawing 98 R = NHSO2 CH3, N-(1-ethyl-2-pyrrolidinylmethyl)-5-methanesulfonamido-2,3-dihydrobenzo[b]furan-7-carboxamide]
ED50 [1, 2]: ~50 mg/kg | ED100 (apomorphine emesis): 1 mg/kg

CCN1CCCC1CNC(=O)c1cccc2c1OC(C)C2 (centres unmarked) [drawing 109 R1 = H,R2 = CH3]
Approx. 50% ED, apomorphine climbing ([1]; i.p. (marked in cell; head prints s.c.)): ~20 mg/kg | 100% Effect Dosage level (dosage at which both animals were protected from apomorphine emesis) (apomorphine emesis): 0.85 mg/kg

CCN1CCCC1CNC(=O)c1cccc2c1OC(C)C2 (centres unmarked) [drawing 99 R = H R' = H]
ED50 [1, 3]: ~20 mg/kg | 100% Effect Dosage level (dosage at which both animals were protected from apomorphine emesis) (apomorphine emesis): 0.05 mg/kg

CCN1CCCC1CNC(=O)c1cccc2c1OC(C)(C)C2 (centres unmarked) [drawing 109 R1 = R2 = CH3]
ED50 [1, 3]: ~100 mg/kg | ED100 (apomorphine emesis): 10 mg/kg

CCN1CCCC1CNC(=O)c1cc(S(N)(=O)=O)ccc1OC (centres unmarked) [sulpiride, 2-methoxy-N-(1-ethyl-2-pyrrolidinylmethyl)-5-sulfamoyl benzamide]
release of prolactin (side effect) (dopamine receptors): increase in the release of prolactin

CCN1CCCC1CNC(=O)c1cc(Cl)c(Cl)c2c1OC(C)C2 (centres unmarked) [drawing 99 R = Cl R' = Cl]
ED50 [1, 2]: ~10 mg/kg

CCN1CCCC1CNC(=O)c1ccc(Cl)c2c1OC(C)C2.O=C(O)/C=C/C(=O)O (centres unmarked) [drawing 99 R = H R' = Cl, 4-chloro-N-(1-ethyl-2-pyrrolidinylmethyl)-2-methyl-2,3-dihydrobenzo[b]furan-7-carboxamide fumarate]
ED50 [1, 2]: ~40 mg/kg | ED50 [1, 3]: ~25 mg/kg

O=C(NC1CCN(Cc2ccccc2)C1)c1cc(Br)cc2ccoc12 (centres unmarked)
ED50 [1, 3]: ~30 mg/kg

CCN1CCCC1CNC(=O)c1cc(Br)cc2c1OCC2 (centres unmarked) [drawing 98 R = Br]
ED50 [1, 2]: ~15 mg/kg | ED100 (apomorphine emesis): 1 mg/kg

CCN1CCCC1CNC(=O)c1ccc(OC)c2c1OC(C)C2 (centres unmarked) [drawing 99 R = H R' = OCH3]
ED50 [1, 2]: ~25 mg/kg

CCN(CC)CCNC(=O)c1cc(Cl)c(N)cc1OC [metoclopramide, 4-amino-5-chloro-N-[(2-diethylamino)ethyl]-2-methoxybenzamide]
release of prolactin (side effect) (dopamine receptors): increase in the release of prolactin

CCN1CCCC1CNC(=O)c1cccc2cc(C)oc12 (centres unmarked) [drawing 97 R = CH3]
ED50 [1, 3]: ~3 mg/kg | ED100 (apomorphine emesis): 10 mg/kg

From US4888353A, “Carboxamides useful as antiemetic or antipsychotic agents” (Erbamont, Inc., priority 1986, dated 1989)
